System: human EPO expression
Assay: In vivo assay: human EPO expression in plasma after IV injection of LNP containing human EPO mRNA (human EPO ELISA)
Design: species or system female Balb/C mice
Settings: 0.5 mg/kg LNP with human EPO mRNA, 4 h post dosing, Balb/C mice plasma (n = 4-5), cationic lipid at 55 mol %, 1.6 mol % PEG2000-C-DMA, 33% cholesterol, 11% DSPC
Description: Lipid stocks were prepared (about 7 mg/mL total lipid content) in 100% ethanol, using the lipid identities and molar ratios described. The mRNA was diluted in acetate pH 5 and nuclease-free water to reach a concentration of 0.366 mg/mL mRNA in 100 mM acetate pH 5. Equal volumes of each solution were blended at 400 mL/min in a T-connector, and diluted with about 4 volumes of PBS, pH 7.4, using the direct dilution method described in U.S. Pat. No. 9,404,127. Formulations were then placed in Slide-A-Lyzer dialysis units (MWCO 10,000) and were dialyzed overnight 10 mM Tris, 500 mM NaCl pH 8 (Tris/NaCl buffer). Following dialysis the formulations were concentrated to about 0.6 mg/mL using VivaSpin concentrator units (MWCO 100,000) and then filtered through a 0.2 um syringe filter.
The various lipids of the present invention were formulated in LNP compositions with the following molar ratios: DSPC (11%):Chol (33%):PEG2000-C-DMA (1.6%):Lipid X (55%). A composition was generated comprising the following components: • (a) nucleic acid; • (b) a mixture of cholesterol and DSPC; • (c) a conjugated lipid of formula: […]
Generally, the LNP were injected intravenously at 0.5 mg/kg to female Balb/C mice, 5-8 weeks old and blood was collected at 4-6 hours post dosing; blood is collected into K2EDTA and processed to plasma, then stored frozen at −80° C. until analysis. Activity was assayed by testing the plasma for human EPO expression using an human EPO ELISA kit either from StemCell (catalogue #01630) or R&D Systems (catalogue DEP00) following the manufacturer's instructions.

SMILES | EPO
CCCCC/C=C\CCCO[Si](CCCCN(C)C)(OCCC/C=C\CCCCC)OCCC/C=C\CCCCC [Example 4] | 1300807 mU/mL
CCCCCCCCCCO[Si](CCCCN(C)C)(OCCCCCCCCCC)OCCCCCCCCCC [Example 11] | 256974 mU/mL
C=C(C)C1CC=C(CO[Si](CCCCN(C)C)(OCC2=CCC(C(=C)C)CC2)OCC2=CCC(C(=C)C)CC2)CC1 (stereo not shown) [Example 23] | 17488 mU/mL
CCCCC/C=C\CCCC(CCC/C=C\CCCCC)CO[Si](CCCN(C)C)(OCC(CCC/C=C\CCCCC)CCC/C=C\CCCCC)OCC(CCC/C=C\CCCCC)CCC/C=C\CCCCC [Example 22] | 15075 mU/mL
CCCCC/C=C\CCCO[Si](CCCCCCN(C)C)(OCCC/C=C\CCCCC)OCCC/C=C\CCCCC [Example 21] | 1470419 mU/mL
CCCCC/C=C\CCCO[Si](CCCCN(C)CCO)(OCCC/C=C\CCCCC)OCCC/C=C\CCCCC [Example 8] | 30446 mU/mL
CCCCCCC(CCCC)CO[Si](CCCCN(C)C)(OCC(CCCC)CCCCCC)OCC(CCCC)CCCCCC (stereo not shown) [Example 19] | 47218 mU/mL
CCCCC/C=C\CCCO[Si](CCCN(C)C)(OCCC/C=C\CCCCC)OCCC/C=C\CCCCC [Example 2] | 144176 mU/mL
CCCCC/C=C\CCCO[Si](CCCCCN(C)C)(OCCC/C=C\CCCCC)OCCC/C=C\CCCCC [Example 20] | 2242992 mU/mL
CN(C)CCCC[Si](OCC12CC3CC(CC(C3)C1)C2)(OCC12CC3CC(CC(C3)C1)C2)OCC12CC3CC(CC(C3)C1)C2 [Example 17] | 226593 mU/mL
CCCCC/C=C\CCCC(CCC/C=C\CCCCC)O[Si](CCCCN1CCC(CO)CC1)(OC(CCC/C=C\CCCCC)CCC/C=C\CCCCC)OC(CCC/C=C\CCCCC)CCC/C=C\CCCCC [Example 15] | 18385 mU/mL
CCCCCCCCCO[Si](CCCN(C)C)(OCCCCCCCCC)OCCCCCCCCC [Example 6] | 25596 mU/mL
CCCCC/C=C\CCCO[Si](CCCCN1CCC(CO)CC1)(OCCC/C=C\CCCCC)OCCC/C=C\CCCCC [Example 9] | 37927 mU/mL
